Experimental data reported in ChEMBL document CHEMBL1201862, “PubChem BioAssay data set” (2004).
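Exposure lasted 48 hours, with cells grown in 96-well plates and compounds tested at five concentrations. GI50: concentration for 50% inhibition of growth.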 Active and inactive are the calls of the source. Rule as the data show it: active = GI50 up to about 1.1 µM and inactive = higher.

Legend:
Assay in all cases: NCI-60 cell line screen, 48 h
786-0 = system: 786-0
A498 = system: A498
A549 = system: A549
ACHN = system: ACHN
CAKI-1 = system: CAKI-1
CCRF-CEM = system: CCRF-CEM
COLO 205 = system: COLO 205
DU-145 = system: DU-145
EKVX = system: EKVX
HCC 2998 = system: HCC 2998
HCT-116 = system: HCT-116
HCT-15 = system: HCT-15
HL-60 = system: HL-60
HOP-62 = system: HOP-62
HOP-92 = system: HOP-92
HT-29 = system: HT-29
Hs-578T = system: Hs-578T
IGROV-1 = system: IGROV-1
K562 = system: K562
KM12 = system: KM12
LOX IMVI = system: LOX IMVI
M14 = system: M14
MCF7 = system: MCF7
MDA-MB-231 = system: MDA-MB-231
MDA-MB-435 = system: MDA-MB-435
MDA-N = system: MDA-N
MOLT-4 = system: MOLT-4
Malme-3M = system: Malme-3M
NCI-H226 = system: NCI-H226
NCI-H23 = system: NCI-H23
NCI-H460 = system: NCI-H460
NCI-H522 = system: NCI-H522
NCI/ADR-RES = system: NCI/ADR-RES
OVCAR-3 = system: OVCAR-3
OVCAR-4 = system: OVCAR-4
OVCAR-5 = system: OVCAR-5
OVCAR-8 = system: OVCAR-8
PC-3 = system: PC-3
RPMI-8226 = system: RPMI-8226
RXF 393 = system: RXF 393
SF-268 = system: SF-268
SF-295 = system: SF-295
SF-539 = system: SF-539
SK-MEL-28 = system: SK-MEL-28
SK-MEL-2 = system: SK-MEL-2
SK-MEL-5 = system: SK-MEL-5
SK-OV-3 = system: SK-OV-3
SN12C = system: SN12C
SNB-19 = system: SNB-19
SNB-75 = system: SNB-75
SR = system: SR
SW-620 = system: SW-620
T47D = system: T47D
TK-10 = system: TK-10
U-251 = system: U-251
UACC-62 = system: UACC-62
UO-31 = system: UO-31
UACC-257 = system: UACC-257

Measured: GI50

CN1C=COC1N=C1CCCCC1 (stereo not drawn)
inactive: 786-0 > 100 µM | A498 > 100 µM | A549 > 100 µM | ACHN > 100 µM | CAKI-1 3.74 µM | CCRF-CEM > 100 µM | COLO 205 > 100 µM | DU-145 > 100 µM | EKVX > 100 µM | HCC 2998 > 100 µM | HCT-116 > 100 µM | HL-60 > 100 µM | HOP-62 > 100 µM | HOP-92 75.7 µM | HT-29 > 100 µM | Hs-578T > 100 µM | IGROV-1 > 100 µM | K562 > 100 µM | KM12 > 100 µM | LOX IMVI > 100 µM | M14 > 100 µM | MCF7 > 100 µM | MDA-MB-231 > 100 µM | MDA-MB-435 > 100 µM | MDA-N > 100 µM | MOLT-4 > 100 µM | Malme-3M > 100 µM | NCI-H226 > 100 µM | NCI-H23 > 100 µM | NCI-H460 > 100 µM | NCI-H522 > 100 µM | NCI/ADR-RES > 100 µM | OVCAR-3 > 100 µM | OVCAR-4 > 100 µM | OVCAR-5 > 100 µM | OVCAR-8 > 100 µM | PC-3 > 100 µM | RPMI-8226 > 100 µM | RXF 393 > 100 µM | SF-268 > 100 µM | SF-295 > 100 µM | SF-539 > 100 µM | SK-MEL-28 > 100 µM | SK-MEL-2 > 100 µM | SK-MEL-5 > 100 µM | SK-OV-3 > 100 µM | SN12C > 100 µM | SNB-19 4.02 µM | SNB-75 41.4 µM | SR > 100 µM | SW-620 3.3 µM | T47D > 100 µM | TK-10 > 100 µM | U-251 > 100 µM | UACC-62 > 100 µM | UO-31 50.9 µM
> 100 µM: HCT-15

COC(=O)C(Cc1ccccc1I)C1=CCC2(CC1)OCCO2 (stereo not drawn)
inactive: 786-0 34.3 µM | A498 74.1 µM | A549 22.4 µM | ACHN 36.6 µM | CAKI-1 70 µM | CCRF-CEM 41.7 µM | COLO 205 28.4 µM | DU-145 25 µM | EKVX 47.6 µM | HCC 2998 31.6 µM | HL-60 18.7 µM | HOP-62 28.9 µM | HOP-92 28.2 µM | HT-29 31.8 µM | Hs-578T 26.6 µM | IGROV-1 41 µM | K562 27.3 µM | KM12 22.9 µM | LOX IMVI 23.3 µM | M14 22.3 µM | MCF7 27.7 µM | MDA-MB-231 54.5 µM | MDA-MB-435 20 µM | MDA-N 28.6 µM | MOLT-4 21.4 µM | Malme-3M 22.9 µM | NCI-H226 79.3 µM | NCI-H23 26.4 µM | NCI-H460 33.3 µM | NCI-H522 21.4 µM | NCI/ADR-RES 18.6 µM | OVCAR-3 20.8 µM | OVCAR-4 37.2 µM | OVCAR-5 11.3 µM | OVCAR-8 35.2 µM | PC-3 26.9 µM | RPMI-8226 30 µM | RXF 393 14.2 µM | SF-268 41.3 µM | SF-295 29.2 µM | SF-539 63.8 µM | SK-MEL-28 48.9 µM | SK-MEL-2 25.5 µM | SK-MEL-5 16.8 µM | SK-OV-3 36.9 µM | SNB-19 25.4 µM | SNB-75 21.2 µM | SR 18 µM | SW-620 44.4 µM | T47D 12.3 µM | TK-10 31.6 µM | U-251 45.4 µM | UACC-257 27.1 µM | UACC-62 20 µM | UO-31 23.3 µM
26.1 µM: HCT-15
